The numbers were not newly measured in US20070259329A1, “Anergy-inducing cellular composition” (BioVerde. Inc., priority 2006, published 2007), which cites them from elsewhere.

Like-named read-outs stand apart in the source and are kept apart here.

For one series, the system named is T-cells. Conditions: Sanbongi et al. (1997); cited from earlier work.
Series [1] deals with antibody-stimulated peripheral blood mononuclear cells. Conditions: Falchetti et al. (2001), cited from earlier work.

With `Oc1cc(O)c2c(c1)O[C@H](c1ccc(O)c(O)c1)[C@H](O)C2` [(−)-epicatechin], the “proliferative responses of T-cells” value with T-cells is listed as “inhibited”.
Take `Oc1ccc(C=Cc2cc(O)cc(O)c2)cc1` [resveratrol]: the cytokine productions result in series [1] (low concentrations (5-10 ppm)) was “inhibited”; in series [1] (still lower concentrations (0.625-2.5 ppm)), “enhanced”.
